The text below walks through data of patent publication US20240327413A1, “NLRP3 MODULATORS” (Zomagen Biosciences Ltd, priority 2021, published 2024).

A value given as a limit tells only on which side of the number the result lay.

The subject of one experiment is IL-1b. In words: Human Monocyte IL-1b Assay (fresh human whole blood, LPS priming, ATP stimulation, ELISA). It counts as cell-based. Particulars: Homo sapiens, read-out: IL-1b (IC50). The procedure:
Serially diluted testing compounds were incubated with […] of fresh human whole blood for 0.5 hours. Cells were primed with 100 ng/mL lipopolysaccharide (LPS) for 3.5 hours at 37° C. followed by stimulation with 5 mM ATP for an additional 45 minutes. The concentration of IL-1b concentration in the supernatant was determined with commercially available ELISA kits. Negative controls are wells without stimulation, while positive controls are wells with stimulation but only DMSO without compounds added. After background subtraction, compound treatment wells were then normalized to the positive controls for IC50 calculations.
On the technique in general: An ELISA detects its analyte on a solid surface through an enzyme-linked reagent.
With `Cc1ccc(-c2nnc(OC3CCCN(C)C3)c3ccccc23)c(O)c1` (centres unmarked) [Compound 23, 5-methyl-2-(4-((1-methylpiperidin-3-yl)oxy)phthalazin-1-yl)phenol], the concentration for half-maximal inhibition (IC50) (commonly the concentration at which inhibition is half-maximal) lay within 0.3 to 3 µM.

The same experiment, now with this note: fresh human whole blood, 100 ng/mL LPS 3.5 hours, then 5 mM ATP 45 minutes, IL-1b in supernatant by ELISA, read-out: IL-1b (IC50).
Take `CN1CCC[C@@H](Nc2nnc(-c3ccc4c(c3O)CCC4)c3cccn23)C1` [Compound 27, (R)-5-(4-((1-methylpiperidin-3-yl)amino)pyrrolo[1,2-d][1,2,4]triazin-1-yl)-2,3-dihydro-1H-inden-4-ol]: the concentration for half-maximal inhibition (IC50) is 0.3 to 3 µM.
Regarding `Cc1ccc(-c2nnc(N[C@@H]3CCCN(C)C3)c3cscc23)c(O)c1` [Compound 21, (R)-5-methyl-2-(4-((1-methylpiperidin-3-yl)amino)thieno[3,4-d]pyridazin-1-yl)phenol], the IC50 was less than 0.3 µM.
On the same count and under the same terms, next, `Cc1cc(C)c(-c2nnc(N[C@@H]3CCCN(C)C3)c3ccccc23)c(O)c1` [Compound 1, 3,5-dimethyl-2-(4-(((R)-1-methylpiperidin-3-yl)amino)phthalazin-1-yl)phenol]: less than 0.3 µM.
On to `Cc1ccc(-c2nnc(N[C@@H]3CCCN(C)C3)c3c2CCCC3)c(O)c1` [Compound 11, (R)-5-methyl-2-(4-((1-methylpiperidin-3-yl)amino)-5,6,7,8-tetrahydrophthalazin-1-yl)phenol], for which the IC50 is less than 0.3 µM.
The same measure, in the same setting: then `Cc1ccc(-c2nnc(N[C@@H]3CCCN(C)C3)n3cccc23)c(O)c1` [Compound 24, (R)-5-methyl-2-(4-((1-methylpiperidin-3-yl)amino)pyrrolo[1,2-d][1,2,4]triazin-1-yl)phenol], with less than 0.3 µM.
On the same count and under the same terms, then `Cc1cc(O)c(-c2nnc(N[C@@H]3CCCN(C)C3)c3ccccc23)cc1F` [Compound 5, (R)-4-fluoro-5-methyl-2-(4-((1-methylpiperidin-3-yl)amino)phthalazin-1-yl)phenol], with less than 0.3 µM; and `Cc1cc(C)c(-c2nnc(N[C@@H]3CCCN(C)C3)c3c2CCC3)c(O)c1` [Compound 7, 3,5-dimethyl-2-(4-(((R)-1-methylpiperidin-3-yl)amino)-6,7-dihydro-5H-cyclopenta[d]pyridazin-1-yl)phenol], with less than 0.3 µM.
Regarding `Cc1cc(O)c(-c2nnc(N[C@@H]3CCCN(C)C3)n3cccc23)c(F)c1` [Compound 14, (R)-3-fluoro-5-methyl-2-(4-((1-methylpiperidin-3-yl)amino)pyrrolo[1,2-d][1,2,4]triazin-1-yl)phenol], the IC50 is less than 0.3 µM.
For `Cc1ccc(-c2nnc(N[C@@H]3CCCN(C)C3)c3ccccc23)c(O)c1` [Compound 2, (R)-5-methyl-2-(4-((1-methylpiperidin-3-yl)amino)phthalazin-1-yl)phenol], the half-inhibitory concentration (IC50) was less than 0.3 µM.
For `Cc1ccc(-c2nnc(N[C@@H]3CCCN(C)C3)c3c2CCC3)c(O)c1F` [Compound 10, (R)-2-fluoro-3-methyl-6-(4-((1-methylpiperidin-3-yl)amino)-6,7-dihydro-5H-cyclopenta[d]pyridazin-1-yl)phenol], the IC50 was less than 0.3 µM.
For `CN1CCC[C@@H](Nc2nnc(-c3ccc(C(F)(F)F)cc3O)c3ccsc23)C1` [Compound 19, (R)-2-(7-((1-methylpiperidin-3-yl)amino)thieno[2,3-d]pyridazin-4-yl)-5-(trifluoromethyl)phenol], the 50% inhibitory concentration (IC50) is less than 0.3 µM.
Same read-out and setting: then `Cc1ccc(-c2nnc(N(C)[C@@H]3CCCN(C)C3)c3ccccc23)c(O)c1` [Compound 12, (R)-5-methyl-2-(4-(methyl(1-methylpiperidin-3-yl)amino)phthalazin-1-yl)phenol], with 0.3 to 3 µM.
In the case of `Cc1cc(C)c(-c2nnc(N[C@@H]3CCCN(C)C3)n3cccc23)c(O)c1` [Compound 13, (R)-3,5-dimethyl-2-(4-((1-methylpiperidin-3-yl)amino)pyrrolo[1,2-d][1,2,4]triazin-1-yl)phenol], the concentration for half-maximal inhibition (IC50) was less than 0.3 µM.
Turning to `Cc1cc(O)c(-c2nnc(N[C@@H]3CCCN(C)C3)n3cccc23)cc1F` [Compound 26, (R)-4-fluoro-5-methyl-2-(4-((1-methylpiperidin-3-yl)amino)pyrrolo[1,2-d][1,2,4]triazin-1-yl)phenol], the IC50 was 0.3 to 3 µM.
For `CN1CCC[C@@H](Nc2nnc(-c3ccc(C(F)(F)F)cc3O)c3cscc23)C1` [Compound 22, (R)-2-(4-((1-methylpiperidin-3-yl)amino)thieno[3,4-d]pyridazin-1-yl)-5-(trifluoromethyl)phenol], the IC50 is less than 0.3 µM.
On the same count and under the same terms, then `CCOC(=O)c1cc(C)ccc1-c1nnc(N[C@@H]2CCCN(C)C2)c2ccccc12` [Compound 6, ethyl (R)-5-methyl-2-(4-((1-methylpiperidin-3-yl)amino)phthalazin-1-yl)benzoate], with 3 to 10 µM; and `Cc1ccc(-c2nnc(N[C@@H]3CCCN(C)C3)c3c2CCC3)c(O)c1` [Compound 8, (R)-5-methyl-2-(4-((1-methylpiperidin-3-yl)amino)-6,7-dihydro-5H-cyclopenta[d]pyridazin-1-yl)phenol], with less than 0.3 µM.
Regarding `CN1CCC[C@@H](Nc2nnc(-c3ccc(C(F)(F)F)cc3O)c3sccc23)C1` [Compound 20, (R)-2-(4-((1-methylpiperidin-3-yl)amino)thieno[2,3-d]pyridazin-7-yl)-5-(trifluoromethyl)phenol], the IC50 is less than 0.3 µM.
On the same count and under the same terms, then `CN1CCC[C@@H](Nc2nnc(-c3ccc4c(c3O)CCC4)c3ccccc23)C1` [Compound 4, (R)-5-(4-((1-methylpiperidin-3-yl)amino)phthalazin-1-yl)-2,3-dihydro-1H-inden-4-ol], with less than 0.3 µM.
